Active and inactive are the calls of the source.
What was measured:
[1] = biological target: Mitogen-activated protein kinase 10 (Homo sapiens, UniProt P53779); assay: Dose response biochemical screening assay for inhibitors of c-Jun N-Terminal Kinase 3 (JNK3). [Related pubchem assays: 746 ]
[2] = Luminescence Cell-Based Dose Response HTS to Identify Inhibitors of 5'UTR Stem-Loop Driven Prion Protein mRNA Translation in H4 Neuroglioblastoma Cells. [Related pubchem assays: 1827 (Project Summary), 1813 (Primary HTS)]; format: functional
[3] = alpha-synuclein stem-loop luciferase translation blockers – H4 neuroglioma cells, luminescence, confirmation (AID 1988); format: functional, cell-based
[4] = biological target: T1, Microphthalmia-associated transcription factor (Homo sapiens, UniProt O75030); assay: reducers of TRPM1 reporter luminescence, concentration series – cell-based, SK-MEL-5, cherry-picked, set 3, MITF inhibitor project, dose response (AID 493073); format: functional;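 note: SK-MEL-5 melanoma cells with luciferase driven by the MITF target TRPM1 promoter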
T1 sequence (O75030 whole entry): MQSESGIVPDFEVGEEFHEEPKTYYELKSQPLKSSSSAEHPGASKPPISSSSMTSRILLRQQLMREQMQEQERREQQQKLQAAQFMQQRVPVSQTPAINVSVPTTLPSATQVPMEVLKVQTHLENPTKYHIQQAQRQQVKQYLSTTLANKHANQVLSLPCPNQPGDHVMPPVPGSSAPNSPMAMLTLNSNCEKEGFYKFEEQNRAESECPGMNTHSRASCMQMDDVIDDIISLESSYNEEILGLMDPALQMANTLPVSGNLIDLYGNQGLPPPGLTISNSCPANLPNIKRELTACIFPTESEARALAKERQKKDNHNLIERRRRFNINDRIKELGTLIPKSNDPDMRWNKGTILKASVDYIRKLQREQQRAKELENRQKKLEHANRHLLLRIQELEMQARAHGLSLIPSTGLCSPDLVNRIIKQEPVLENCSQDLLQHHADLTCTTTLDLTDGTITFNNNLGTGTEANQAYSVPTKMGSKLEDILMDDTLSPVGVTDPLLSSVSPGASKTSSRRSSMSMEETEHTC

[5] = A549 cell cytotoxicity, dose response, cytotoxicity control, plate reader, cherry-pick, antagonist series (AID 743412); format: functional, cell-based
[6] = blockers of bursicon-stimulated LGR2 cAMP reporter – cell-based, HEK293, CRE-luciferase reporter, cherry pick, set 2, dose response (AID 743343); format: functional;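 note: transfected cells were stimulated with diluted bursicon conditioned medium after compound addition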
[7] = blockade of melanocortin 4 receptor signaling – cell-based, plate reader, cherry pick, counter-screen for LGR2 antagonist project, dose response (AID 743444); format: functional;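 note: transfected HEK 293 cells stimulated with alpha-MSH peptide; potency of inhibitors of the alpha-MSH evoked signal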
[8] = toxicity toward HepG2 liver cells – cell-based, plate reader, cherry-pick, antagonist series, cytotoxicity control, dose response (AID 743416); format: functional
[9] = viability loss in HEK293 cells – cell-based, plate reader, cherry-picked samples, cytotoxicity control, dose response (AID 743446); format: functional
Fatty acid synthase [10] = biological target: T2, Fatty acid synthase (Homo sapiens, UniProt P49327); assay: inhibition of human FAS-TE enzyme activity – biochemical, endpoint fluorescence intensity, uHTS hits, dose response (AID 624327); format: functional;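 note: fluorescence from hydrolysis of an O-methyl fluorescein acyl ester substrate by the enzyme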
T2 sequence (P49327 whole entry): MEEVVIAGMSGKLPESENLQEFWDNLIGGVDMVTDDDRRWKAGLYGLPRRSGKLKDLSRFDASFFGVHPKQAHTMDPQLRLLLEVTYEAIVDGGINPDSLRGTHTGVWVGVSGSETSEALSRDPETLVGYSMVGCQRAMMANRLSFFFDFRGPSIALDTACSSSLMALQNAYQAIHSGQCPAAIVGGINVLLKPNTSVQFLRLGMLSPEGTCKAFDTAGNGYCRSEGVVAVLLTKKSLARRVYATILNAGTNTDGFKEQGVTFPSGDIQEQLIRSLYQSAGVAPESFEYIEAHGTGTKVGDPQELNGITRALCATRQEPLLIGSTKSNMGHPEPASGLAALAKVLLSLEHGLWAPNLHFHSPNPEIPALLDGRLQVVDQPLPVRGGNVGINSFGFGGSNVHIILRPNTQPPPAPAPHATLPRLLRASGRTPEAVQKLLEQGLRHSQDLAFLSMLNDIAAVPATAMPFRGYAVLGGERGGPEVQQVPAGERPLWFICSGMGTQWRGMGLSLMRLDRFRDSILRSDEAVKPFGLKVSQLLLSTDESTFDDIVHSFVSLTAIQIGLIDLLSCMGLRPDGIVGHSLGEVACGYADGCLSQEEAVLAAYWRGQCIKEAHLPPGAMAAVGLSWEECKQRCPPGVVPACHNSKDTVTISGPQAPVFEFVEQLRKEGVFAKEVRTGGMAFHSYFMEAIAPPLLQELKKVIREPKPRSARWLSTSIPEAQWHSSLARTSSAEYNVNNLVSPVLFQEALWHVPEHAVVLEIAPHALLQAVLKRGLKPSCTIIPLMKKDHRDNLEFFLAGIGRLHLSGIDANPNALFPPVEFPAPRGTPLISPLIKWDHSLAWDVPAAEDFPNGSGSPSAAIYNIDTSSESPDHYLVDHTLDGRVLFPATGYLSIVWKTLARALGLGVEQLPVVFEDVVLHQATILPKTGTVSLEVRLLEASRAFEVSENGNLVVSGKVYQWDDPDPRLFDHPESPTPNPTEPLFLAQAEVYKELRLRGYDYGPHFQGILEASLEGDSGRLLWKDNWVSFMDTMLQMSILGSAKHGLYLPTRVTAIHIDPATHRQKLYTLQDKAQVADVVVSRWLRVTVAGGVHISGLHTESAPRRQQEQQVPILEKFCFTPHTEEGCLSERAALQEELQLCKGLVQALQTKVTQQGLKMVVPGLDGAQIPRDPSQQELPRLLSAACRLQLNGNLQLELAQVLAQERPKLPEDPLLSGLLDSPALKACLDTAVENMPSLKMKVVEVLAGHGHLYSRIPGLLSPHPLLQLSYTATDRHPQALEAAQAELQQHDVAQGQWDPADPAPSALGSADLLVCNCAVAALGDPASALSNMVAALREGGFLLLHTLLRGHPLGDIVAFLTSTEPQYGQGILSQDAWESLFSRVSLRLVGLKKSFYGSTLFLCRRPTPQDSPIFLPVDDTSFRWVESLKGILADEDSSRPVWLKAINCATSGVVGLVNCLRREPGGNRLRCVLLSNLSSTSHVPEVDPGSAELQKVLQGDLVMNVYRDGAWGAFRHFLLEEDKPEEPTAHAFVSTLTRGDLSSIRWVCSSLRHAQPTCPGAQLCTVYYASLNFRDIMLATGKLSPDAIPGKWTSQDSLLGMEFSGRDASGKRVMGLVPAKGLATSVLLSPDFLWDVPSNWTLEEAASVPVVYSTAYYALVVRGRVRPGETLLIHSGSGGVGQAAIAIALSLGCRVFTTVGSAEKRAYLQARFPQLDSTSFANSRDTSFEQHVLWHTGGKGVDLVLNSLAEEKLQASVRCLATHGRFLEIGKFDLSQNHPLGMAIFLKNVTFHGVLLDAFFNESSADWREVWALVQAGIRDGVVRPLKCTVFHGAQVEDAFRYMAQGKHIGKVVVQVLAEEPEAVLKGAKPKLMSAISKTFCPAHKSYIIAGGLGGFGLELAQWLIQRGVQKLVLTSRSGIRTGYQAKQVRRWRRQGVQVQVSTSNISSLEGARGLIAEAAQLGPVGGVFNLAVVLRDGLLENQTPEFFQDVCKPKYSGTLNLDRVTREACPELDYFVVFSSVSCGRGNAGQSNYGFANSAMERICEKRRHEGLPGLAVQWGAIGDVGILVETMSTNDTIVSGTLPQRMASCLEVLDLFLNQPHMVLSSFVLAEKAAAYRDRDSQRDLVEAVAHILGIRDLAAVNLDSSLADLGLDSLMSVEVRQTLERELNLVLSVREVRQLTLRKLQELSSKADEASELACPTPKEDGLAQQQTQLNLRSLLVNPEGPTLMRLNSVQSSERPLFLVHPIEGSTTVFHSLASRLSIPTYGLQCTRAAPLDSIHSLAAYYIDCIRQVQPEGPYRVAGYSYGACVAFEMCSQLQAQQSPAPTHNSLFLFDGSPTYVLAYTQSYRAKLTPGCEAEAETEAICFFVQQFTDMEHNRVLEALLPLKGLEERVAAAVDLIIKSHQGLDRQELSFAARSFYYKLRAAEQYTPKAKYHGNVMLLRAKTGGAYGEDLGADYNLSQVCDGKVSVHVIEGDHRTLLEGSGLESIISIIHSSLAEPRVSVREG

Fatty acid synthase [11] = biological target: T2, Fatty acid synthase; assay: inhibition of human FAS-TE enzyme activity – biochemical, kinetic fluorescence intensity, dose response (AID 624326); format: functional;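 note: rate of fluorescence rise from hydrolysis of a fluorogenic O-methyl fluorescein ester substrate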
[12] = HPDE-C7 pancreatic duct cell viability loss – fluorescence, HTS (AID 430); format: functional, cell-based; conditions: Homo sapiens
[13] = viability loss of HPDE-C7K cells – cell-based, fluorescence, HTS, primary screen (AID 431); format: functional; conditions: Homo sapiens
[14] = viability of uninfected HEp-2 cells – cell-based, HTS, cytotoxicity control for RSV inhibitor project, dose response (AID 2410); format: functional; conditions: human respiratory syncytial virus
[15] = Trypanosoma cruzi growth suppression in host cells – NIH3T3 host cells, beta-gal luminescence, confirmation (AID 2044); format: functional, cell-based;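 note: intracellular parasites grown in NIH/3T3 mouse fibroblasts as host cells; luminescent beta-galactosidase reporter signal from transgenic T. cruzi replicating inside host cells; inhibitors lower the luminescence signal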
[16] = NIH3T3 cell viability loss – ATP luminescence, mouse fibroblasts, counter-screen, dose response (AID 2010); format: functional, cell-based;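 note: cells exposed to compound for about 90 hours before reading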
[17] = biological target: T3, Heat shock factor protein 1 (Mus musculus, UniProt P38532); assay: enhancement of HSF1-driven luciferase signal – cell-based, NIH3T3, luminescence, dose retest, confirmation (AID 435004); format: functional;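 note: stress induced by proteasome inhibitor MG132 added 30 min after compound; luciferase reporter driven by HSF1 response element in NIH3T3 cells; actives raise luminescence as potentiators of the MG132 stress response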
T3 sequence (P38532 whole entry): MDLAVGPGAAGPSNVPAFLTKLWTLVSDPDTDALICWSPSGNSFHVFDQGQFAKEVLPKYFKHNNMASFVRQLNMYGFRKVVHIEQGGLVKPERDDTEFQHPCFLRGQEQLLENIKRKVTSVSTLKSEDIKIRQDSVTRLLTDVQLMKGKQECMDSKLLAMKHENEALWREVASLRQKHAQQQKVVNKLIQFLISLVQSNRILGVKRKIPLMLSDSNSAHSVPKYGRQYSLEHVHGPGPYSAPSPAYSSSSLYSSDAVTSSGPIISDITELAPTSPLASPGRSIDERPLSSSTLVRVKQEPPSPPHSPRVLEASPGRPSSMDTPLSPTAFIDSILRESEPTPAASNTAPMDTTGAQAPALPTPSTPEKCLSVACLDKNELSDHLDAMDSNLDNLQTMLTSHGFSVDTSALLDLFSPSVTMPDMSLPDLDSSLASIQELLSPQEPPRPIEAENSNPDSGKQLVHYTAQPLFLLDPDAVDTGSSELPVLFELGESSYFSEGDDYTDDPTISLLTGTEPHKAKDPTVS

[18] = luciferase reporter signal suppression in cells – H4 neuroglioma cells, luminescence, dose response (AID 1990); format: functional, cell-based
[19] = Luminescence Cell-Based Dose Confirmation HTS to Identify Activators of 5'UTR Stem-Loop Driven Alpha-Synuclein mRNA Translation in H4 Neuroglioblastoma Cells. [Related pubchem assays: 1829 (Project Summary), 1814 (Primary HTS)]; format: functional
[20] = Luminescence Cell-Based Dose Response HTS to Identify Activators of Luciferase Translation or Activity in H4 […] Cells. [Related pubchem assays: 1829 (Project Summary), 1814 (Primary HTS)]; format: functional
H4 = assay: Luminescence Cell-Based Dose Response HTS to Identify Activators of 5'UTR Stem-Loop Driven Prion Protein mRNA Translation in H4 Neuroglioblastoma Cells. [Related pubchem assays: 1829 (Project Summary), 1814 (Primary HTS)]; format: functional; conditions: Homo sapiens
Estrogen receptor beta [21] = biological target: T4, Estrogen receptor beta (Homo sapiens, UniProt Q92731);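 note: recombinant ER-beta bound to coactivator SRC1 peptide in presence of estradiol agonist; inhibitors block coactivator peptide binding and lower the FRET signal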
T4 sequence (Q92731 whole entry): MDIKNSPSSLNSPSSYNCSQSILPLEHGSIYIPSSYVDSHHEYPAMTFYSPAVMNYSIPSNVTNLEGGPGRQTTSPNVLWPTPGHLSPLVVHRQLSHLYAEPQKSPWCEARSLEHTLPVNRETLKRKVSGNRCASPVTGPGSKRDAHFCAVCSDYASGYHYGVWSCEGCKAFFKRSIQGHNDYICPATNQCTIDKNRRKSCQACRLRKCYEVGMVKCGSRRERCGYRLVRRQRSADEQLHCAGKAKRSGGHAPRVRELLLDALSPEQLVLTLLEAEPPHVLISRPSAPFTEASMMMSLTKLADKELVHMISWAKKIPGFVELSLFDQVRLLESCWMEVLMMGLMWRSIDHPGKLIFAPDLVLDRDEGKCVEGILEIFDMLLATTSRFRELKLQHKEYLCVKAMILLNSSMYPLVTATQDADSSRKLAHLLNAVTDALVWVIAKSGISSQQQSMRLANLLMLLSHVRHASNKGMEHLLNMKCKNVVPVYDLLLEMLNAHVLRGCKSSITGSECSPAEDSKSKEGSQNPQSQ

Estrogen receptor beta [22] = biological target: T4, Estrogen receptor beta; assay: blockers of SRC-3 recruitment to ERβ – biochemical, ELISA, streptavidin-HRP readout, orthogonal assay, confirmation (AID 1060)
[23] = biological target: T5, Carboxy-terminal domain RNA polymerase II polypeptide A small phosphatase 1 (Homo sapiens, UniProt Q9GZU7); assay: CTDSP1 inhibitors, concentration-response, biochemical, absorbance readout, ultra-high-throughput screen actives (AID 540297); format: functional
T5 sequence (Q9GZU7 whole entry): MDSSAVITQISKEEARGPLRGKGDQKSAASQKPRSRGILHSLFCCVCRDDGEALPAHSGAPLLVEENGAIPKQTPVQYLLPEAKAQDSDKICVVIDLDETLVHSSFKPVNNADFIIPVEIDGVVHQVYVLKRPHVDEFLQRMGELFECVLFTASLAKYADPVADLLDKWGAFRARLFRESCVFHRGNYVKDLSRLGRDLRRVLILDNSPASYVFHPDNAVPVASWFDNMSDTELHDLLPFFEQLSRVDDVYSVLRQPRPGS

[24] = biological target: T6, Histone-lysine N-methyltransferase NSD2 (Homo sapiens, UniProt O96028); format: biochemical
T6 sequence (O96028 whole entry): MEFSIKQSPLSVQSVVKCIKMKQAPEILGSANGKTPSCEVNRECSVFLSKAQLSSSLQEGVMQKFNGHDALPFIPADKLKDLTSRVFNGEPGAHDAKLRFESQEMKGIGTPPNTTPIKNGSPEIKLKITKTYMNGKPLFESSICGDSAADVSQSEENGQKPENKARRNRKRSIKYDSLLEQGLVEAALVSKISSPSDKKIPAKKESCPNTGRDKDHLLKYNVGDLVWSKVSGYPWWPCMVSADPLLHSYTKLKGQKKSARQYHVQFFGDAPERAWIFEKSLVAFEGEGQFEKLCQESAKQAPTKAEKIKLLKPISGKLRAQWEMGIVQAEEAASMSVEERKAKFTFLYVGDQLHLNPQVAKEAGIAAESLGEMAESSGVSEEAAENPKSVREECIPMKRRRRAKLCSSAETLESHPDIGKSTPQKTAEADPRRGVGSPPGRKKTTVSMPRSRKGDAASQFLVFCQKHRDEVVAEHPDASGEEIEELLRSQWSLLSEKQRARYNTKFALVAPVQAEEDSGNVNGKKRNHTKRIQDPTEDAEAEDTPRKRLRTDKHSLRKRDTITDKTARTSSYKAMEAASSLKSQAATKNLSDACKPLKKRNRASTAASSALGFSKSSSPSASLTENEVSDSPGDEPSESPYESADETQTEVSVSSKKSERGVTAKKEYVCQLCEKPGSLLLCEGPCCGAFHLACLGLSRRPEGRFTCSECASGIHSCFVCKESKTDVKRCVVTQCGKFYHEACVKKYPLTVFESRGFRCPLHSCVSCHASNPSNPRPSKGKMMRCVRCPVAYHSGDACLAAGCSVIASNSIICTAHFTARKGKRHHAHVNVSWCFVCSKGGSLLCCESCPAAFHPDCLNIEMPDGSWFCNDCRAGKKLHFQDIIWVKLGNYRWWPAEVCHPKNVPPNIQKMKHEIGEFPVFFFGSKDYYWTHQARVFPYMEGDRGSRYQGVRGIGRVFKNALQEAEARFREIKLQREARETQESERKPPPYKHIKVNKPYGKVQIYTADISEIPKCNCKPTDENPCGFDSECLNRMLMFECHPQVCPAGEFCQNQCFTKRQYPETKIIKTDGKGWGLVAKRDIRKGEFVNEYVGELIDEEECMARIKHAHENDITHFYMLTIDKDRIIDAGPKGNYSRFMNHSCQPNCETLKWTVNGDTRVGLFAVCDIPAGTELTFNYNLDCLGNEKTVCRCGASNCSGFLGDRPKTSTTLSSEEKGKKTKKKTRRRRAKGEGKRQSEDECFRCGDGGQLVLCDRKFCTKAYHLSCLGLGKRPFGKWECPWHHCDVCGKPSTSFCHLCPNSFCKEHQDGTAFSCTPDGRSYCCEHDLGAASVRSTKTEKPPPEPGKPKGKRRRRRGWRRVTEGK

Mitogen-activated protein kinase 10, sequence (P53779 whole entry): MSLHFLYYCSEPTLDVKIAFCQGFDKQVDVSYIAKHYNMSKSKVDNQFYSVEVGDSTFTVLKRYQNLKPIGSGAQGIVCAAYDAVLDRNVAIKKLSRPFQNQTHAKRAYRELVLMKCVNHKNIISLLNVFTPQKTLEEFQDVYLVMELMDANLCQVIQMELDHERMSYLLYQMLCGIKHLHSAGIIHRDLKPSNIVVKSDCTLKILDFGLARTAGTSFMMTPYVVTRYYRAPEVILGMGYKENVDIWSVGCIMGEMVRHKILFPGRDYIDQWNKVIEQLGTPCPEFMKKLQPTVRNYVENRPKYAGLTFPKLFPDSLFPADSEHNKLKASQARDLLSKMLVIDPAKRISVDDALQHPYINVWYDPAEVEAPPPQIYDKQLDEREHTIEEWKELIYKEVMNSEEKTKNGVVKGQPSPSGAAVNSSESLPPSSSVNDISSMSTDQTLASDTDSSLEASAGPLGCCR

Compound: CCOC(=O)c1cnc2ccc(Cl)cc2c1N1CCN(C)CC1
- IC50 [1]: 25.9 µM (not active)

Compound: Cc1ccc(-n2[nH]c(=O)c(-c3ccccn3)c2C)cc1
- EC50 [2]: 0.571 µM (active)
- EC50 [3]: 2 µM (active)
- AC50 [4]: 3.23 µM (active)
- AC50 [5]: > 52 µM (inactive)
- AC50 [6]: 1.61 µM (active)
- AC50 [7]: 2.08 µM (active)

Compound: Cc1nc(NCc2ccco2)c(C#N)c2c1COC(C)(C)C2
- IC50 [1]: 37.5 µM (not active)

Compound: O=C(Nc1nnc(C2CC2)s1)c1ccccn1
- AC50 [5]: 7.92 µM (active)
- AC50 [8]: 8.23 µM (active)
- AC50 [6]: 18.3 µM (active)
- AC50 [7]: 17.1 µM (active)
- AC50 [9]: 19 µM (active)

Compound: CN(Cc1ccc(C(C)(C)C)cc1)C(=O)Cc1ccc(S(=O)(=O)N2CCOCC2)s1
- IC50 (Fatty acid synthase [10]): 0.424 µM (active)
- IC50 (Fatty acid synthase [11]): 0.291 µM (active)

Compound: CN1CCN(CC(=O)Nc2sc3c(c2C#N)CCC(C(C)(C)C)C3)CC1 (configuration not stated)
- EC50 [12]: > 20 µM (not active)
- EC50 [13]: > 20 µM (not active)

Compound: c1ccc(-c2nc(NCc3cccnc3)c3oc4ccccc4c3n2)cc1
- CC50 [14]: 28.9 µM (active)
- EC50 [12]: 14.2 µM (active)
- EC50 [15]: 2.22 µM (active)
- EC50 [13]: 15.8 µM (active)
- EC50 [16]: > 60 µM (not active)
- EC50 [17]: > 260 µM (inactive)

Compound: COc1ccc(N2CCN(C(=O)CSc3ccc([N+](=O)[O-])cc3)CC2)cc1
- IC50 (Fatty acid synthase [10]): 21.1 µM (inactive)
- IC50 (Fatty acid synthase [11]): 12.9 µM (active)

Compound: O=C(Nc1cccc(Cl)c1)c1cc([N+](=O)[O-])ccc1N1CCN(CCO)CC1
- IC50 (Fatty acid synthase [10]): 6.61 µM (active)
- IC50 (Fatty acid synthase [11]): 2.72 µM (active)

Compound: COc1ccc(C(=O)Nc2ccc3ccccc3c2)cc1
- EC50 [18]: 9.12 µM (inconclusive)
- EC50 [2]: 10.4 µM (inconclusive)
- EC50 [3]: 6.82 µM (active)
- AC50 [8]: 45.6 µM (active)
- AC50 [6]: 5.78 µM (active)
- AC50 [7]: 8.43 µM (active)

Compound: COc1ccc(/C=C(\NC(=O)c2ccc([N+](=O)[O-])cc2)C(=O)NCCCN2CCOCC2)cc1
- IC50 (Fatty acid synthase [10]): 4.51 µM (active)
- IC50 (Fatty acid synthase [11]): 2.95 µM (active)

Compound: N#CC1=C(N)NC(SCc2ccc(F)cc2)=C(C#N)C12CCCCC2
- EC50 [19]: > 120 µM (not active)
- EC50 [20]: > 120 µM (not active)
- EC50 (H4): > 120 µM (not active)
- EC50 [12]: 10.4 µM (active)
- EC50 [13]: 9.03 µM (active)

Compound: O=C(COC(=O)c1ccccc1)NCc1ccco1
- IC50 (Estrogen receptor beta [21]): 5.54 µM (active)
- IC50 (Estrogen receptor beta [22]): 0.351 µM (not active)
- IC50 [23]: 11.1 µM (active)

Compound: CCNCCC(CCC(C)C)c1ccc2c(c1)OCO2 (configuration not stated)
- AC50 [24]: > 20 µM (inactive)

Compound: COc1cc(C(=O)COC(=O)c2cc([N+](=O)[O-])ccc2N2CCOCC2)ccc1OC(F)F
- IC50 (Fatty acid synthase [10]): 10.3 µM (active)
- IC50 (Fatty acid synthase [11]): 10.1 µM (active)

Compound: CCN(CC)CCCNc1cc(C)c(C#N)c2nc3ccccc3n12
- AC50 [24]: > 20 µM (inactive)

From ChEMBL document CHEMBL1201862, “PubChem BioAssay data set” (2004)
